From patent US9494572B2, “Method and compositions for treating cancer and related methods” (Icahn School of Medicine at Mount Sinai, priority 2011, dated 2016)
Like-named read-outs stand apart in the source and are kept apart here.

Tests used:
H1650 cell line = test: Apoptosis (FACS sub-G1, cleaved PARP and Caspase 3) in H1650; assay type: cell-based, human
Protocol: (§1) Cells treated with drug or transfected with siRNA were stained with propidium iodide to ascertain DNA content and determine cell cycle distribution within the cell population as previously described. […] Sub-G1 peaks were analyzed on DNA histograms; hypo diploid DNA represented dead cells. This fraction indicated apoptotic as well as necrotic cells. Apoptosis was further validated by Caspase 3 and PARP cleavage through western blotting.
(§2) The role of KLF6 in induction of apoptosis in response to anti-EGFR therapeutics was further tested in cell culture.

KLF6 [1] = test: KLF6 mRNA and protein expression in H1650; assay type: cell-based, human; settings: 40 μM TFP, 1 h and 48 h
Protocol: (§3) RNA was isolated from cell lines and tumor samples using the RNeasy Mini Kit (Qiagen) as per manufacturer's instructions. For each PCR reaction, 1 μg RNA was reverse transcribed using iScript cDNA synthesis kit (BioRad Laboratories). Each cDNA sample was subjected to sequence-specific partial amplification with specific primers and the SYBR green PCR Master Mix (Applied Biosystems) on an ABI PRISM 7900HT plate-reader instrument. […] The following primers were also used: FOXO1 forward 5′ […]
as §2

FOXO1 [2] = test: Nuclear cytoplasmic fractionation of H1650; assay type: cell-based, human; settings: 20 μM, 1 h
Protocol: H1650 cells were seeded and grown to 60-70% confluency, and treated with increasing doses of TFP. Cell lysates were extracted using NE-PER Nuclear and Cytoplasmic Extraction Reagents (Thermo Scientific) according to supplier's protocol.
Trifluoperazine Hydrochloride (TFP), a FDA-approved antipsychotic and antiemetic, is an effective nuclear export inhibitor of the FOXO1 transcription factor that increases FOXO1 nuclear localization via calmodulin inhibition upstream of AKT and downstream of PI3K. Kau, T. R., et al. Cancer Cell 4, 463-476 (2003). TFP was used to inhibit nuclear export of FOXO1 and determine if activation of the FOXO1/KLF6 transcriptional network could restore sensitivity to the PTEN-depleted, erlotinib-resistant cell line, H1650. To examine the effect of TFP on nuclear localization of FOXO1 and, subsequently, KLF6 expression, H1650 cells were treated for 1 h with increasing doses of TFP (0, 20 μM, 40 μM) and fractionated into nuclear and cytoplasmic fractions. BRCA1 served as a nuclear marker and GAPDH served as a cytoplasmic marker for the fractionation.

H1650 xenograft tumors = test: Tumorgenicity assay, H1650 xenograft; assay type: in vivo, nude mice; settings: i.p., erlotinib 25 mg/kg, TFP 10 mg/kg, four treatments
Protocol: H1650 cells (5×10^6) were similarly injected into the right flank of 6 to 8-week old female BALB/c nu/nu mice. Tumor volume was assessed weekly as previously described by Sangodkar, J., et al., supra until volumes reached an average of 200 mm^3. […] A total of four treatments were given with a 48 h rest period.
Tumor growth was measured weekly until average tumor volume for all mice was approximately 200 mm^3. […] Tumor growth in H1650-injected nude mice was measured 24 hours after each drug injection. […] Lysate homogenates from treated and untreated tumors were run and probed in parallel (n=5); statistical significance of densitometry calculations indicated (*P<0.05; **P<0.01; ***P<0.001).

[3] = cited from earlier work
H1650 = test: Cell viability, H1650; assay type: cell-based; settings: Homo sapiens, NCI-H1650
A549luc = test: Cell viability, A549luc; assay type: cell-based; settings: Homo sapiens
H3255 = test: Cell viability, H3255; assay type: cell-based; settings: Homo sapiens, NCI-H3255
FOXO1 [4] = test: FOXO1 immunocytochemistry in H1650 cells; settings: 20 μM, 48 hours, vs untreated
Protocol: Viability of cells line H1650, A549luc and H3255 were determined for cells grown in control medium and medium supplemented with 10 μM, 20 μM and 40 μM chlorpromazine.
H1650 cells were plated on glass coverslips at a density of 150,000 cells in complete RPMI media. […] After incubation with a secondary goat anti-Rabbit IgG (1:1000), (H+L) FITC conjugate (Millipore, P307F), cover slips were mounted with Vectashield DAPI counterstain (H1200) and visualized under fluorescent microscope. A total of 100 cells per condition were counted to determine the distribution of FOXO1 in the cytoplasm vs. the nucleus.

HCC827 cell line = system: HCC827 cell line
Protocol: as §1
(§4) In addition, dysregulated activity of downstream mediators of EGFR signaling, such as PTEN, PI3K and K-Ras or amplification of the MET proto-oncogene can also drive the resistant phenotype.

A549 cell line = test: Apoptosis (FACS sub-G1 fraction, cleaved PARP) in A549; assay type: cell-based, human
Protocol: as §1, §4

H2122 cell line = test: Apoptosis (FACS sub-G1 fraction, cleaved PARP) in H2122; assay type: cell-based, human
Protocol: as §1, §4

H1975 cell line = test: Apoptosis (FACS sub-G1 fraction, cleaved PARP) in H1975; assay type: cell-based; settings: Homo sapiens, NCI-H1975; H1975 (T790M EGFR); 72 h; read-out: IC50, erlotinib-mediated apoptosis
Protocol: as §1, §4

KLF6 [5] = test: KLF6 mRNA and protein expression (qRT-PCR, western) in HCC827; assay type: cell-based, human
Protocol: as §3

KLF6 [6] = test: KLF6 mRNA and protein expression in H2122; assay type: cell-based, human; settings: 1 μM 72 h
Protocol: as §3

KLF6 [7] = test: KLF6 mRNA and protein expression in A549; assay type: cell-based, human; settings: 1 μM 72 h
Protocol: as §3

[8] = system: EGFR^L858R mutant mouse-derived tumors; settings: in vivo
[9] = system: P-EGFR, P-AKT, P-FOXO1, T-FOXO1; test: Western blot of EGFR-AKT-FOXO1 signaling in HCC827; assay type: cell-based, human
Protocol: EGFR activates two major downstream pathways, the Ras-Raf-MAPK and the PI3K-AKT signaling cascades, resulting in both increased cellular proliferation and survival. […] The role of PI3K-AKT signaling cascade was tested utilizing an antagonist of AKT signaling that acts by inhibiting of the PDK1 and 2 kinases that activate AKT.

FOXO1 and KLF6 = assay type: cell-based, human
shLuc-HCC827 = test: Clonogenic assay, shLuc-HCC827; assay type: cell-based, human; settings: control shLuc; 50 nM; 7 days
Protocol: HCC827 shLuc and shKLF6 were plated at a low density in 6-well plates. […] Cells were fixed and then stained with 1% crystal violet staining solution.

ERK and AKT [10] = system: ERK and AKT
Description: (§5) The variable sensitivity of the lung adenocarcinoma cell lines to anti-EGFR-based therapy was used to determine the effects of EGFR inhibition on KLF6 gene transcription.

ERK and AKT [11] = system: ERK and AKT; remark: listed apart in the source
Description: as §5

SMILES: CN1CCN(CCCN2c3ccccc3Sc3ccc(C(F)(F)F)cc32)CC1 [TFP, 10-[3-(4-methylpiperazin-1-yl)propyl]-2-(trifluoromethyl)-10H-phenothiazine]
- Apoptosis (FACS, cleaved PARP, cleaved Caspase 3) (H1650 cell line; 40 μM TFP, 1 h): increased apoptosis
- KLF6 mRNA and protein (KLF6 [1]): upregulation of KLF6 mRNA and protein
- Nuclear FOXO1 expression (FOXO1 [2]): increased nuclear FOXO1 expression
- Tumor growth rate (H1650 xenograft tumors): decreased
- average daily clinical dose for CNS effect [3]: 0.3 µmol/kg

SMILES: CN(C)CCCN1c2ccccc2Sc2ccc(Cl)cc21 [chlorpromazine, 3-(2-chloro-10H-phenothiazin-10-yl)-N,N-dimethyl-propan-1-amine]
- Apoptosis (sub-G1 propidium iodide staining) (H1650 cell line; increasing doses of CPZ, 48 hrs): increased amount of apoptosis
- IC50 (H1650): 20 µM
- IC50 (A549luc): 20 µM
- IC50 (H3255): 8 µM
- average daily clinical dose for CNS effect [3]: 12 µmol/kg
- Nuclear accumulation of FOXO1 (FOXO1 [4]): significant nuclear accumulation of FOXO1

SMILES: C#Cc1cccc(Nc2ncnc3cc(OCCOC)c(OCCOC)cc23)c1 [erlotinib, [6,7-bis(2-methoxyethoxy)-4-quinazolin-4-yl]-(3-ethynylphenyl) amine]
- Apoptosis (sub-G1 propidium iodide staining, cleaved PARP) (HCC827 cell line): significantly increased levels of apoptosis
- Cleaved PARP (HCC827 cell line): increased cleaved PARP
- Induction of apoptosis (A549 cell line; A549): did not result in a significant induction of apoptosis
- IC50 (A549 cell line; Homo sapiens, A549, 72 h, read-out: IC50, erlotinib-mediated apoptosis): > 0.5 µM
- Induction of apoptosis (H2122 cell line; H2122): did not result in a significant induction of apoptosis
- IC50 (H2122 cell line; Homo sapiens, NCI-H2122, 72 h, read-out: IC50, erlotinib-mediated apoptosis): > 0.5 µM
- IC50 (H1975 cell line): > 0.5 µM
- Apoptosis (sub-G1 propidium iodide staining, cleaved PARP) (H1650 cell line; 1 μM erlotinib, 48 h): no increase in apoptosis
- KLF6 expression (KLF6 [5]): significant upregulated
- KLF6 gene expression, endogenous mRNA and protein (KLF6 [5]): Significant upregulation
- KLF6 expression, mRNA and protein (KLF6 [6]): still upregulated
- KLF6 expression, mRNA and protein (KLF6 [7]): still upregulated
- KLF6 expression in tumors [8]: increased KLF6 expression at both the mRNA and protein level
- Spontaneous apoptosis, Caspase 3 cleavage in tumors [8]: increased Caspase 3 cleavage
- Phosphorylated EGFR, AKT and FOXO1 [9]: reduced phosphorylated forms of EGFR, AKT and FOXO1
- Total FOXO1 [9]: increased total amount of FOXO1
- Nuclear localization of FOXO1 and KLF6 (FOXO1 and KLF6): increased
- Colony formation (shLuc-HCC827): decreased colony formation
- Tumor growth rate (H1650 xenograft tumors): increased
- Downstream ERK signaling (ERK and AKT [10]): no changes in downstream ERK signaling
- Downstream ERK signaling (ERK and AKT [11]): no changes in downstream ERK signaling

SMILES: OCCN1CCN(CC/C=C2/c3ccccc3Sc3ccc(C(F)(F)F)cc32)CC1 [flupentixol]
- average daily clinical dose for CNS effect [3]: 0.01 µmol/kg

SMILES: OCCN1CCN(CCCN2c3ccccc3Sc3ccc(C(F)(F)F)cc32)CC1 [fluphenazine]
- average daily clinical dose for CNS effect [3]: 0.17 µmol/kg

SMILES: OCCN1CCN(CCCN2c3ccccc3Sc3ccc(Cl)cc32)CC1 [perphenazine]
- average daily clinical dose for CNS effect [3]: ~1 µmol/kg

SMILES: CN(C)CCCN1c2ccccc2Sc2ccccc21 [promazine]
- average daily clinical dose for CNS effect [3]: 33 µmol/kg

SMILES: CSc1ccc2c(c1)N(CCC1CCCCN1C)c1ccccc1S2 (stereo not drawn) [thiordazine]
- average daily clinical dose for CNS effect [3]: 13 µmol/kg

SMILES: CN(C)CCCN1c2ccccc2Sc2ccc(C(F)(F)F)cc21 [triflupromazine]
- average daily clinical dose for CNS effect [3]: 6 µmol/kg

SMILES: OCCN1CCN(CC/C=C2/c3ccccc3Sc3ccc(Cl)cc32)CC1 [zuclopenthixol]
- average daily clinical dose for CNS effect [3]: ~0.05 µmol/kg
